Laboratory results reported in US20140057953A1, “BIARYL DERIVATIVES AS SELECTIVE 17BETA-HYDROXYSTEROID DEHYDROGENASE TYPE 2 INHIBITORS” (priority 2011, published 2014).

How the values were obtained:
[1] = target: T1, ERα (Homo sapiens, UniProt P03372); assay: ER affinity assay (ERα), [3H]-E2 displacement; conditions: Relative Binding Affinity, E2 = 100%; recombinant human protein
T1 sequence (P03372 1-595): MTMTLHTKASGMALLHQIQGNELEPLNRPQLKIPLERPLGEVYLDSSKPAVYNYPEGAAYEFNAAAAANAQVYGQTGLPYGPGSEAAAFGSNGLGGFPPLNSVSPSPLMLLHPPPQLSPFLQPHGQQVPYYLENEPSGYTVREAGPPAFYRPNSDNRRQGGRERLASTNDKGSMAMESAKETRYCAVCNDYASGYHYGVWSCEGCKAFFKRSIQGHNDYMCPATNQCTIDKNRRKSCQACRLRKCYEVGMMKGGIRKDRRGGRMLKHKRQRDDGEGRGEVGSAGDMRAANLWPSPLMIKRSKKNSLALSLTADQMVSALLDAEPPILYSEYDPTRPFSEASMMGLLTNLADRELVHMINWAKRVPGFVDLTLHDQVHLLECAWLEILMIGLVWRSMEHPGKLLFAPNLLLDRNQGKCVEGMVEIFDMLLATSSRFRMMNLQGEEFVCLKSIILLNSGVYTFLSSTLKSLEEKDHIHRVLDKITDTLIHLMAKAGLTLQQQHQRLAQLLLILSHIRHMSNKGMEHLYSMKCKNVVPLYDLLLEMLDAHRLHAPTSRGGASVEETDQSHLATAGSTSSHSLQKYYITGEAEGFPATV
Method: (§1) The binding affinity of selected compounds to the ERα and ERβ was determined according to Zimmermann et al. (Zimmermann, J. et al., 3. Steroid Biochem. Mol. Biol., 94:57-66 (2005)) using recombinant human proteins. Briefly, 0.25 μM of ERα or ERβ, respectively, were incubated with [^3H]-E2 (10 nM) and test compound for 1 h at room temperature. The potential inhibitors were dissolved in DMSO (5% final concentration). Evaluation of non-specific-binding was performed with diethylstilbestrol (10 μM). After incubation, ligand-receptor complexes were selectively bound to hydroxyapatite (5 g/60 ml TE-buffer). The formed complex was separated, washed and resuspended in ethanol. For radiodetection, scintillator cocktail (Quickszint 212, Zinsser Analytic, Frankfurt) was added and the samples were measured in a liquid scintillation counter (Rack Beta Primo 1209, Wallac, Turku). […] The compound concentration to displace 50% of the receptor bound [^3H]-E2 were determined. Unlabelled E2 was used as a reference. For determination of the relative binding affinity (RBA) the ratio was calculated according to the following equation: […]
(§2) After the assay was established and validated a modification was made to increase throughput. […] Results were reported as RBA ranges.

[2] = target: ERβ (Homo sapiens, UniProt Q92731); assay: ER affinity assay (ERβ), [3H]-E2 displacement; conditions: Relative Binding Affinity, E2 = 100%; recombinant human protein
ERβ, sequence (Q92731 whole entry): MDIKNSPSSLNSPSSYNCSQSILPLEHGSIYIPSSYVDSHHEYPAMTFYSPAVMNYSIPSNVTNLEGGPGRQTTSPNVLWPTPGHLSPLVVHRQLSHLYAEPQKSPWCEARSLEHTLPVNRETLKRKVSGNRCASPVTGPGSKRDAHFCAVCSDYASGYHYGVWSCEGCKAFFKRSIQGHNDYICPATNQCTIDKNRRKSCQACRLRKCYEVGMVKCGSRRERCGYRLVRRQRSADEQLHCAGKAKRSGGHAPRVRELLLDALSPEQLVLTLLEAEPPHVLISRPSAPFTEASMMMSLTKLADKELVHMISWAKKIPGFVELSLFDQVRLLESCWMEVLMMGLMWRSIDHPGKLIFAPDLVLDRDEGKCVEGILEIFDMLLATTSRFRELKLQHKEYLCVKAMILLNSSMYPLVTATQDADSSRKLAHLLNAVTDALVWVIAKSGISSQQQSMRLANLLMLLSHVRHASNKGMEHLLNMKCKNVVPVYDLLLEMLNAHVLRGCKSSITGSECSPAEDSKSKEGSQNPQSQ
Method: as §1, §2

[3] = target: T2, 17β-HSD2 (Homo sapiens, UniProt P37059); assay: Inhibition of 17β-HSD2 in cell-free assay; type: biochemical; design: 17β-HSD2 was obtained directly from the microsomal fraction; from tissue; host or cells: human placenta, microsomal fraction; conditions: human placenta, microsomal fraction, substrate E2 500 nM, cofactor NAD+ 1500 μM
T2 sequence (P37059 1-387): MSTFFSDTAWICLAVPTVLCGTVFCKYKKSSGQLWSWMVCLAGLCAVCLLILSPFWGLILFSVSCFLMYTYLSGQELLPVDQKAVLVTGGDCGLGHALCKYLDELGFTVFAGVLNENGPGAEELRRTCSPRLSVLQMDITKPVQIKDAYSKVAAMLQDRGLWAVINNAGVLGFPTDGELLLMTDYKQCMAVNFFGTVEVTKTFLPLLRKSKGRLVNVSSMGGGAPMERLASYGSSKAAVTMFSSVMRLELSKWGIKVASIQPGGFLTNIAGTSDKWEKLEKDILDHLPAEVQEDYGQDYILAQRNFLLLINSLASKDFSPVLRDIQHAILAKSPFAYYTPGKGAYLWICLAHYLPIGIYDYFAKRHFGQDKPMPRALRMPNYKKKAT
Method: (§3) Fresh human placenta was homogenized. Cytosolic and microsomal fractions were separated by centrifugation at 1000 g, 10000 g and 150000 g. 17β-HSD2 was obtained directly from the microsomal fraction. For the partial purification of 17β-HSD1, the cytosolic fraction was precipitated with ammonium sulfate. Aliquots containing 17β-HSD1 or 17β-HSD2 were stored frozen.
Inhibitor stock solutions were prepared in DMSO. Final concentration of DMSO was adjusted to 1% in all samples. The enzymatic reaction was started by addition of a mixture of unlabelled- and [^3H]-E2 (final concentration: 500 nM, 0.11 μCi). After 20 min at 37° C., the incubation was stopped with HgCl2 and the mixture was extracted with ether. After evaporation, the steroids were dissolved in acetonitrile. E1 and E2 were separated using acetonitrile/water (45:55) as mobile phase in a C18 RP chromatography column (Nucleodur C18, 3 μm, Macherey-Nagel, Duren) connected to a HPLC-system (Agilent 1100 Series, Agilent Technologies, Waldbronn). Detection and quantification of the steroids were performed using a radioflow detector (Berthold Technologies, Bad Wildbad). The conversion rate was calculated according to the following equation: […]

[4] = target: T3, 17β-HSD1 (Homo sapiens, UniProt P14061); assay: Inhibition of 17β-HSD1 in cell-free assay; type: biochemical; conditions: human placenta, cytosolic fraction, substrate E1 500 nM, cofactor NADH 500 μM; for % inhibition 17β-HSD1 / inhibition at 1 µM: inhibitor concentration 1 μM
T3 construct: For the partial purification of 17β-HSD1, the cytosolic fraction was precipitated with ammonium sulfate; from tissue; host or cells: human placenta, cytosolic fraction
T3 sequence (P14061 1-328): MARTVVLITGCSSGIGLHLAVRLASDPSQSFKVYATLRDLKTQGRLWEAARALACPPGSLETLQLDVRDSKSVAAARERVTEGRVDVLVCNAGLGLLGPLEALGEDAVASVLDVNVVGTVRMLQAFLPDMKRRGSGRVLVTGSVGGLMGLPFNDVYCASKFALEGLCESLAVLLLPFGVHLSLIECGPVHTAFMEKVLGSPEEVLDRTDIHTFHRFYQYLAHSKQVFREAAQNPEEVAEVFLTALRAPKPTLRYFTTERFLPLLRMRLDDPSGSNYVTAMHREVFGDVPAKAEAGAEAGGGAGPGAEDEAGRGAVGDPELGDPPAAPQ
Method: as §3
The 17β-HSD1 inhibition assay was performed similarly to the 17β-HSD2 test. The cytosolic fraction was incubated with NADH [500 μM], test compound and a mixture of unlabelled- and [^3H]-E1 (final concentration: 500 nM, 0.15 μCi) for 10 min at 37° C. Further treatment of the samples and HPLC separation was carried out as mentioned above for 17β-HSD2.

Row | Structure (SMILES) | ERα RBA (%) [1] [%] | ERβ RBA (%) [2] [%] | IC50 [3] [µM] | IC50 [4] [µM] | inhibition at 1 µM ([3]; inhibitor concentration 1 μM) [%] | % inhibition 17β-HSD1 [4] | inhibition at 1 µM [4] [%] | % inhibition 17β-HSD2 ([3]; inhibitor concentration 1 μM)
1 | CN(Cc1cccc(O)c1)C(=O)c1ccc(-c2cccc(N(C)C)c2)s1 [compound 40, 5-(3-(Dimethylamino)phenyl)-N-(3-hydroxybenzyl)-N-methylthiophene-2-carboxamide] | <0.1 | <0.1 | 0.246 | 18.6 |  |  |  | 
2 | Cc1cccc(N(C)C(=O)c2ccc(-c3cccc(O)c3)s2)c1 [compound 71, 5-(3-Hydroxyphenyl)-N-methyl-N-m-tolylthiophene-2-carboxamide] | <0.1 | <0.1 | 0.644 | 6.8 |  |  |  | 
3 | COc1cccc(-c2cccc(C(=O)N(C)c3cccc(OC)c3)c2)c1 [compound 11, 3′-Methoxy-N-(3-methoxyphenyl)-N-methylbiphenyl-3-carboxamide] | <0.1 | <0.1 | 0.517 | > 60 |  |  |  | 
4 | COc1cccc(CN(C)C(=O)c2ccc(-c3ccccc3OC)s2)c1 [compound 27, N-(3-Methoxybenzyl)-5-(2-methoxyphenyl)-N-methylthiophene-2-carboxamide] |  |  |  |  | 48 | n.i.^e |  | 
5 | COc1ccc(N(C)C(=O)c2ccc(-c3cccc(OC)c3F)s2)cc1 [compound 73, 5-(2-Fluoro-3-methoxyphenyl)-N-(4-methoxyphenyl)-N-methylthiophene-2-carboxamide] |  |  |  |  | 49 |  | 18 | 
6 | CN(CCc1cccc(O)c1)C(=O)c1ccc(-c2cccc(F)c2)s1 [compound 22, 5-(3-Fluorophenyl)-N-(3-hydroxyphenethyl)-N-methylthiophene-2-carboxamide] |  |  |  |  | 17 |  | 12 | 
7 | COc1cccc(CN(C)C(=O)c2ccc(-c3cccc(OC)c3)s2)c1 [compound 23, N-(3-Methoxybenzyl)-5-(3-methoxyphenyl)-N-methylthiophene-2-carboxamide] | <0.1 | <0.1 | 0.37 | > 100 |  |  |  | 
8 | COc1cccc(-c2ccc(C(=O)N(C)c3cccc(-c4ccccc4)c3)s2)c1 [compound 76, N-(Biphenyl-3-yl)-5-(3-methoxyphenyl)-N-methylthiophene-2-carboxamide] |  |  | 0.137 | 1.11 |  |  |  | 
9 | COc1cccc(N(C)C(=O)c2ccc(-c3ccc(F)c(OC)c3)s2)c1 [compound 62, 5-(4-Fluoro-3-methoxyphenyl)-N-(3-methoxyphenyl)-N-methylthiophene-2-carboxamide] |  |  | 0.726 | > 100 |  |  |  | 
10 | COc1cccc(N(C)C(=O)c2ccc(-c3ccc(OC)c(F)c3)s2)c1 [compound 61, 5-(3-Fluoro-4-methoxyphenyl)-N-(3-methoxyphenyl)-N-methylthiophene-2-carboxamide] | <0.1 | <0.1 | 0.242 | > 40 |  |  |  | 
11 | COc1cccc(-c2ccc(C(=O)N(C)c3cccc(C(F)(F)F)c3)s2)c1 [compound 75, 5-(3-Methoxyphenyl)-N-methyl-N-(3-(trifluoromethyl)phenyl)thiophene-2-carboxamide] | <0.1 | <0.1 | 0.721 | 12.3 |  |  |  | 
12 | CN(CCc1cccc(O)c1)C(=O)c1ccc(-c2ccccc2)s1 [compound 20, N-(3-Hydroxyphenethyl)-N-methyl-5-phenylthiophene-2-carboxamide] |  |  |  |  | 11 | n.i.^e |  | 
13 | COc1cccc(N(C)C(=O)c2ccc(-c3ccc(OC)cc3OC)s2)c1 [compound 57, 5-(2,4-Dimethoxyphenyl)-N-(3-methoxyphenyl)-N-methylthiophene-2-carboxamide] |  |  | 0.313 | 1.93 |  |  |  | 

More lines, now with the values ahead:

Row | ERα RBA (%) [1] [%] | ERβ RBA (%) [2] [%] | IC50 [3] [µM] | IC50 [4] [µM] | inhibition at 1 µM ([3]; inhibitor concentration 1 μM) [%] | % inhibition 17β-HSD1 [4] | inhibition at 1 µM [4] [%] | % inhibition 17β-HSD2 ([3]; inhibitor concentration 1 μM) | Structure (SMILES)
14 | <0.1 | <0.1 | 0.265 | > 100 |  |  |  |  | COc1cccc(CN(C)C(=O)c2ccc(-c3cccc(C)c3)cc2)c1 [compound 3, N-(3-Methoxybenzyl)-N,3′-dimethylbiphenyl-4-carboxamide]
15 |  |  |  |  | 11 | n.i.^e |  |  | COc1ccc(-c2cccc(C(=O)N(C)Cc3cccc(OC)c3)c2)cc1 [compound 5, 4′-Methoxy-N-(3-methoxybenzyl)-N-methylbiphenyl-3-carboxamide]
16 | <0.1 | <0.1 | 0.061 | 4.45 |  |  |  |  | COc1cccc(-c2ccc(C(=O)N(C)Cc3cccc(O)c3)s2)c1F [compound 43, 5-(2-Fluoro-3-methoxyphenyl)-N-(3-hydroxybenzyl)-N-methylthiophene-2-carboxamide]
17 | <0.1 | <0.1 | 0.335 | 5.11 |  |  |  |  | CN(Cc1cccc(O)c1)C(=O)c1ccc(-c2ccc(O)cc2)s1 [compound 26, N-(3-Hydroxybenzyl)-5-(4-hydroxyphenyl)-N-methylthiophene-2-carboxamide]
18 |  |  | 0.481 | 3.8 |  |  |  |  | CN(Cc1cccc(O)c1)C(=O)c1cccc(-c2cccc(O)c2)c1 [compound 8, 3′-Hydroxy-N-(3-hydroxybenzyl)-N-methylbiphenyl-3-carboxamide]
19 |  |  |  |  |  | n.i.^e |  | n.i.^e | COc1cccc(CCN(C)C(=O)c2ccc(-c3cccc(F)c3)s2)c1 [compound 21, 5-(3-Fluorophenyl)-N-(3-methoxyphenethyl)-N-methylthiophene-2-carboxamide]
20 |  |  |  |  | 18 |  | 11 |  | COc1cccc(CCN(C)C(=O)c2ccc(-c3ccccc3)s2)c1 [compound 19, N-(3-Methoxyphenethyl)-N-methyl-5-phenylthiophene-2-carboxamide]
